Measured values taken from article PMC10235848, “Novel N′-substituted benzylidene benzohydrazides linked to 1,2,3-triazoles: potent α-glucosidase inhibitors” (Scientific Reports, 2023).
Each block holds one compound with its values, some of them ahead of it.

What was measured:
[1] = biological target: T1, α-glucosidase (Saccharomyces cerevisiae, UniProt P53341); details: cited from earlier work
[2] = biological target: T1, α-glucosidase; experiment: Fluorescence quenching spectroscopy; format: binding; details: 35 °C
[3] = biological target: T1, α-glucosidase; experiment: Fluorescence quenching spectroscopy; format: binding; parameters: ΔS: unit not given here; details: for Kq quenching rate constant / n binding sites: 25 °C; for ΔS: standard thermodynamic values from KA
Procedure: Fluorescence spectrometry was used for studying the interactions between selected α-glucosidase inhibitors (7a, 7d, and 7h) and the enzyme at 25 °C and pH 6.8 to determine the binding constants, number of binding sites, and thermodynamic parameters of the corresponding interactions. Herein, the maximum fluorescence intensity of α-glucosidase was obtained at 340 nm, which can be attributed to tryptophan, tyrosine, and phenylalanine residues that can act as intrinsic fluorescence probes with excitation at 280 nm.
The fluorescence measurements were performed on a Synergy HTX multi-mode reader (Biotek Instruments, Winooski, VT, USA) equipped with a quartz cuvette of 10 mm. The excitation wavelength was 280 nm and the emission spectra were measured in the range from 300 to 440 nm with 10 accumulations for each collection point. The emission spectrum was corrected for the background fluorescence from the buffer solution and for the inner filter effect promoted by the inhibitors. The protein-inhibitors interaction measurements were performed by collecting the fluorescence.
The fluorescence quenching of the protein (P) by a drug or inhibitor (D) was analyzed by Stern−Volmer equation (Eq. 1), where F0 and F are the fluorescence intensity in the absence and presence of a quencher (inhibitor), respectively. [D] is the concentration of inhibitor, Kq is the quenching rate constant, τ0 is the average life-time of the molecule without the quencher (10^−8 s), and KSV is the Stern−Volmer dynamic quenching constant.1 F0/F=1+Kqτ0D=1+KSVD
The reaction of the protein (P) and a drug molecule or inhibitor (D) was considered as Eq. 2, where P is the protein, D is the drug molecule, and DnP is the new complex molecule with the binding constant of KA.2 P+D→DnP
As the number of the binding site of protein and drug is respectively n and 1, the equivalent concentration of the complex DnP is n[DnP]; the equivalent concentration of the protein is n[P] and the equivalent concentration of the drug is [D]. In this respect, the KA value is calculated based on the Eq. (3).3 KA=nDnP/DnP
If the total concentration of protein is [Pt] and the total concentration of the drug is [Dt]: [Pt] = [Pf] + [DnP] and [Df] = [Dt] − n[DnP].
If protein (P) is the only fluorescence in the reaction system, thus:4 F0/F=Pt/Pf where F and F0 are the fluorescence intensity of protein in the presence and absence of drug D, respectively. Therefore, the relationship between the fluorescence intensity and the drug total concentration can be deduced from Eq. (5).5 F0/F=KADtF0/F0-F-nKAPt
Keeping the total concentration of protein at a definite value and varying the total concentration of the drug leads to obtaining the plot of F0/F as a function of [Dt] F0/(F0 − F) following with the calculation of KA.
The standard thermodynamic values were calculated according to Eqs. (6), (7), where ΔH, ΔG, and ΔS are enthalpy, free energy, and entropy changes, respectively. In the case of small changes in temperature, the enthalpy change can be considered as a constant and ΔH is calculated from Eq. (6) following with the calculation of ΔG and ΔS from Eq. (7).6 lnKA2/KA1=1/T1-1/T2ΔH/R 7 ΔG=-RTlnKA=ΔH-TΔS

[4] = system: HEK293 cell line; details: no reference given; cited from earlier work

T1 sequence (P53341 whole entry): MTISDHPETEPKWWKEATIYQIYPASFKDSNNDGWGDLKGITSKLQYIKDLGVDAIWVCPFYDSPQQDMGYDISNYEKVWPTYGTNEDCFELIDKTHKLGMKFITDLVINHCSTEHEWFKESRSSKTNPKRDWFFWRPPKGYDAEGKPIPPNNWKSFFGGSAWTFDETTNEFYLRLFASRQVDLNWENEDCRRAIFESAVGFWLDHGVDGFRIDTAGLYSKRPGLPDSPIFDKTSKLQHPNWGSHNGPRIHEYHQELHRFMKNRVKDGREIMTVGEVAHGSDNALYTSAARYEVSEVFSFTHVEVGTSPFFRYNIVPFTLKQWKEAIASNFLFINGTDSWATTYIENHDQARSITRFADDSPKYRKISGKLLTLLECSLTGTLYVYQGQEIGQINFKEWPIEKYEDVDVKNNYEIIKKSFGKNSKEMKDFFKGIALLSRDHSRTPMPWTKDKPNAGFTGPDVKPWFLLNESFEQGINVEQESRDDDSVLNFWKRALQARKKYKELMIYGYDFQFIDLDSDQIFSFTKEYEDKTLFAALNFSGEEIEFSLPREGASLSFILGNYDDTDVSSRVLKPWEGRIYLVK

SMILES: O=c1oc2ccccc2c(O)c1C(c1ccc(OCc2cn(Cc3ccccc3Cl)nn2)cc1)c1c(O)c2ccccc2oc1=O [A]
IC50 [1]: 13 ± 1.5 µM
mode of inhibition [1]: competitive

SMILES: O=C1Nc2ccccc2/C1=N/N=C/c1ccc(OCc2cn(Cc3ccccc3F)nn2)cc1 [C]
IC50 [1]: 16.43 ± 0.01 µM
mode of inhibition [1]: competitively

SMILES: O=C(NN=Cc1ccccc1)c1ccc(OCc2cn(Cc3ccccc3)nn2)cc1 [Compound 7a, 4-((1-Benzyl-1H-1,2,3-triazol-4-yl)methoxy)-N′-benzylidenebenzohydrazide]
Kq quenching rate constant [2]: 9e+15 M⁻¹ s⁻¹
Kq quenching rate constant [3]: 1.5e+15 M⁻¹ s⁻¹
n binding sites [3]: 0.8
ΔS [3]: 48.37

SMILES: Cc1ccc(Cn2cc(COc3ccc(C(=O)NN=Cc4ccccc4)cc3)nn2)cc1 [Compound 7d, N′-Benzylidene-4-((1-(4-methylbenzyl)-1H-1,2,3-triazol-4-yl)methoxy)benzohydrazide]
Kq quenching rate constant [2]: 1e+15 M⁻¹ s⁻¹
Kq quenching rate constant [3]: 4.2e+15 M⁻¹ s⁻¹
n binding sites [3]: 0.1
ΔS [3]: 146.0
melting point: 154 to 156 °C

SMILES: O=C(NN=Cc1ccc([N+](=O)[O-])cc1)c1ccc(OCc2cn(Cc3ccccc3Cl)nn2)cc1 [Compound 7g, 4-((1-(2-Chlorobenzyl)-1H-1,2,3-triazol-4-yl)methoxy)-N′-(4-nitrobenzylidene)benzohydrazide]
melting point: 204 to 206 °C

SMILES: Cc1ccc(Cn2cc(COc3ccc(C(=O)NN=Cc4ccc([N+](=O)[O-])cc4)cc3)nn2)cc1 [Compound 7h, 4-((1-(4-Methylbenzyl)-1H-1,2,3-triazol-4-yl)methoxy)-N′-(4-nitrobenzylidene)benzohydrazide]
Kq quenching rate constant [2]: 6.8e+15 M⁻¹ s⁻¹
Kq quenching rate constant [3]: 1e+15 M⁻¹ s⁻¹
n binding sites [3]: 0.06
ΔS [3]: 71.1
melting point: 247 to 250 °C

SMILES: COc1ccc(C=NNC(=O)c2ccc(OCc3cn(Cc4ccccc4Cl)nn3)cc2)cc1 [Compound 7o, 4-((1-(2-Chlorobenzyl)-1H-1,2,3-triazol-4-yl)methoxy)-N′-(4-methoxybenzylidene)benzohydrazide]
melting point: 222 to 225 °C

SMILES: COc1ccc(C=NNC(=O)c2ccc(OCc3cn(Cc4ccc(C)cc4)nn3)cc2)cc1 [Compound 7p, N′-(4-Methoxybenzylidene)-4-((1-(4-methylbenzyl)-1H-1,2,3-triazol-4-yl)methoxy)benzohydrazide]
melting point: 224 to 228 °C

SMILES: CCc1ccc(NC(=O)Cn2cc(COc3ccc(-c4nc5ccccc5[nH]4)cc3)nn2)cc1 [Compound B]
IC50 [1]: 25.2 ± 0.9 µM

SMILES: COC(=O)c1c(C)cc(OC(=O)c2c(C)cc(O)c(/C=N/NC(=O)Cc3ccccc3)c2O)c(C)c1O [E]
toxicity on the HEK293 cell line [4]: without toxicity

Next, values leading:

melting point: 160 to 163 °C
SMILES: O=C(NN=Cc1ccccc1)c1ccc(OCc2cn(Cc3ccc(F)cc3)nn2)cc1 [Compound 7b, N′-Benzylidene-4-((1-(4-fluorobenzyl)-1H-1,2,3-triazol-4-yl)methoxy)benzohydrazide]

melting point: 203 to 207 °C
SMILES: O=C(NN=Cc1ccccc1)c1ccc(OCc2cn(Cc3ccccc3Cl)nn2)cc1 [Compound 7c, N′-Benzylidene-4-((1-(2-chlorobenzyl)-1H-1,2,3-triazol-4-yl)methoxy)benzohydrazide]

melting point: 193 to 196 °C
SMILES: O=C(NN=Cc1ccc([N+](=O)[O-])cc1)c1ccc(OCc2cn(Cc3ccccc3)nn2)cc1 [Compound 7e, 4-((1-Benzyl-1H-1,2,3-triazol-4-yl)methoxy)-N′-(4-nitrobenzylidene)benzohydrazide]

melting point: 202 to 205 °C
SMILES: O=C(NN=Cc1ccc([N+](=O)[O-])cc1)c1ccc(OCc2cn(Cc3ccc(F)cc3)nn2)cc1 [Compound 7f, 4-((1-(4-Fluorobenzyl)-1H-1,2,3-triazol-4-yl)methoxy)-N′-(4-nitrobenzylidene)benzohydrazide]

melting point: 211 to 214 °C
SMILES: O=C(NN=Cc1ccc(Cl)cc1)c1ccc(OCc2cn(Cc3ccccc3)nn2)cc1 [Compound 7i, 4-((1-Benzyl-1H-1,2,3-triazol-4-yl)methoxy)-N′-(4-chlorobenzylidene)benzohydrazide]

melting point: 236 to 238 °C
SMILES: O=C(NN=Cc1ccc(Cl)cc1)c1ccc(OCc2cn(Cc3ccc(F)cc3)nn2)cc1 [Compound 7j, N′-(4-Chlorobenzylidene)-4-((1-(4-fluorobenzyl)-1H-1,2,3-triazol-4-yl)methoxy)benzohydrazide]

melting point: 246 to 248 °C
SMILES: O=C(NN=Cc1ccc(Cl)cc1)c1ccc(OCc2cn(Cc3ccccc3Cl)nn2)cc1 [Compound 7k, 4-((1-(2-Chlorobenzyl)-1H-1,2,3-triazol-4-yl)methoxy)-N′-(4-chlorobenzylidene)benzohydrazide]

melting point: 216 to 218 °C
SMILES: Cc1ccc(Cn2cc(COc3ccc(C(=O)NN=Cc4ccc(Cl)cc4)cc3)nn2)cc1 [Compound 7l, N′-(4-Chlorobenzylidene)-4-((1-(4-methylbenzyl)-1H-1,2,3-triazol-4-yl)methoxy)benzohydrazide]

melting point: 237 to 240 °C
SMILES: COc1ccc(C=NNC(=O)c2ccc(OCc3cn(Cc4ccccc4)nn3)cc2)cc1 [Compound 7m, 4-((1-Benzyl-1H-1,2,3-triazol-4-yl)methoxy)-N′-(4-methoxybenzylidene)benzohydrazide]
